# Data taken from patent US11136317B2, “NADPH oxidase 4 inhibitors” (ACTELION PHARMACEUTICALS LTD, priority 2015, dated 2021).
# Target: T1, human NOX4 (Homo sapiens, UniProt Q9NPH5)
# T1 construct: The full-length human NOX4 (NM_016931.3) transcript was cloned; expressed in transfected cells
# T1 sequence (Q9NPH5 1-578): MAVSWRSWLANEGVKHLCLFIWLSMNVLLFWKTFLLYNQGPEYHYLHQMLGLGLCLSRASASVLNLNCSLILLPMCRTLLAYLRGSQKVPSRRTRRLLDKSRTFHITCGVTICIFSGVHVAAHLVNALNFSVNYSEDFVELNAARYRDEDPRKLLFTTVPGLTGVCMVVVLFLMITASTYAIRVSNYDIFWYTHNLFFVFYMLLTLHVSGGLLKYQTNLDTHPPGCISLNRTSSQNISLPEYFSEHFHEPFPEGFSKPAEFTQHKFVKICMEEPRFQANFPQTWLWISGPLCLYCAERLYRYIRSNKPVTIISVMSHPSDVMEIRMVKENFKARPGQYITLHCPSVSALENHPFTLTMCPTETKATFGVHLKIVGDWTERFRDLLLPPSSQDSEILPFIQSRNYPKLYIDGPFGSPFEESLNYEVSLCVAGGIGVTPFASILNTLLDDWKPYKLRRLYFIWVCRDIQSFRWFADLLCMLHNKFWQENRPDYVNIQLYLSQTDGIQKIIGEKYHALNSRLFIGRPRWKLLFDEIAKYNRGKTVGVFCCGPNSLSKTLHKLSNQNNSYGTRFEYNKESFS
# T1 sequence (P13498 1-195 partner): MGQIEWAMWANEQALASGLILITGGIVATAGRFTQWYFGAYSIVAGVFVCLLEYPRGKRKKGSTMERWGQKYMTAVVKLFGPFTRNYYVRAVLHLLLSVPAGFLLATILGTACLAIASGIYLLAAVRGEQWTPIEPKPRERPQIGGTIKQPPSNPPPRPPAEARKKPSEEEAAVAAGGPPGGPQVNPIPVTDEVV
# Test: Amplex Red activity assay (cellular H2O2 formation in hNOX4 T-REx-293 cells)
# Assay type: cell-based
# Conditions: tet-induced 24 h, extracellular H2O2 by Amplex Red, 60 min 25° C., geometric mean if determined several times
# In short: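 Tet-induced (1 μg/mL, 24 h) HEK293 T-REx cells stably expressing full-length human NOX4, 20 000 cells/well, exposed to compounds (10 concentrations, 50 μM to 100 nM; 1.25% DMSO) for 60 min at 25°C. Extracellular H2O2 detected by Amplex Red resorufin fluorescence (ex 550/em 600 nm) versus vehicle; IC50 calculated.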
row,SMILES,IC50 [nM]
1,"COC1CCCN(c2nc3cc(NC(=O)c4ccc5c(c4)CCO5)ccc3s2)C1 (stereo not drawn) [Example 108, 2,3-Dihydro-benzofuran-5-carboxylic acid [2-(3-methoxy-piperidin-1-yl)-benzothiazol-5-yl]-amide]",2540
2,"O=C(Nc1ccc2oc(N3CCC(F)(F)CC3)nc2c1)c1ccc2c(c1)OCO2 [Example 134, Benzo[1,3]dioxole-5-carboxylic acid [2-(4,4-difluoro-piperidin-1-yl)-benzooxazol-5-yl]-amide]",870
3,"COC1CCN(c2nc3cc(C(=O)Nc4ccc5c(c4)OCO5)ccc3s2)CC1 [Example 210, 2-(4-Methoxy-piperidin-1-yl)-benzothiazole-5-carboxylic acid benzo[1,3]dioxol-5-ylamide]",6900
4,"O=C(Nc1ccc2oc(N3CCC34CCC4)nc2c1)c1ccc2c(c1)OCO2 [Example 123, Benzo[1,3]dioxole-5-carboxylic acid [2-(1-aza-spiro[3.3]hept-1-yl)-benzooxazol-5-yl]-amide]",434
5,"CN1CCOc2ccc(C(=O)Nc3ccc4oc(N5CCC56CCOCC6)nc4c3)cc21 [Example 182, 4-Methyl-3,4-dihydro-2H-benzo[1,4]oxazine-6-carboxylic acid [2-(7-oxa-1-aza-spiro[3.5]non-1-yl)-benzooxazol-5-yl]-amide]",3390
6,"O=C(Nc1ccc2oc(N3CCC(F)(F)CC3)nc2c1)c1ccc2c(c1)OCCO2 [Example 170, 2,3-Dihydro-benzo[1,4]dioxine-6-carboxylic acid [2-(4,4-difluoro-piperidin-1-yl)-benzooxazol-5-yl]-amide]",899
7,"O=C(Nc1ccc2oc(N3CCC3c3ccccc3)nc2c1)c1ccc2c(c1)CCO2 (racemic) [Example 62, rac-2,3-Dihydro-benzofuran-5-carboxylic acid [2-(2-phenyl-azetidin-1-yl)-benzooxazol-5-yl]-amide]",702
8,"O=C(Nc1ccc2oc(N3CCS(=O)(=O)CC3)nc2c1)c1ccc2c(c1)OCCO2 [Example 39, 2,3-Dihydro-benzo[1,4]dioxine-6-carboxylic acid [2-(1,1-dioxo-thiomorpholin-4-yl)-benzooxazol-5-yl]-amide]",444
9,"O=C(Nc1ccc2sc(N3CC4(CCO4)C3)nc2c1)c1ccc2c(c1)CCO2 [Example 104, 2,3-Dihydro-benzofuran-5-carboxylic acid [2-(1-oxa-6-aza-spiro[3.3]hept-6-yl)-benzothiazol-5-yl]-amide]",6870
10,"O=C(Nc1ccc2sc(N3CC(F)(F)C3)nc2c1)c1ccc2c(c1)CCO2 [Example 87, 2,3-Dihydro-benzofuran-5-carboxylic acid [2-(3,3-difluoro-azetidin-1-yl)-benzothiazol-5-yl]-amide]",4100
11,"O=C(Nc1ccc2sc(N3CCCC3)nc2c1)c1ccc2c(c1)CCO2 [Example 84, 2,3-Dihydro-benzofuran-5-carboxylic acid (2-pyrrolidin-1-yl-benzothiazol-5-yl)-amide]",1320
12,"CN1CCOc2ccc(C(=O)Nc3ccc4oc(N5CCC56CCC6)nc4c3)cc21 [Example 179, 4-Methyl-3,4-dihydro-2H-benzo[1,4]oxazine-6-carboxylic acid [2-(1-aza-spiro[3.3]hept-1-yl)-benzooxazol-5-yl]-amide]",1740
13,"O=C(Nc1ccc2oc(N3CCC34CCOC4)nc2c1)c1ccc2c(c1)OCCO2 (stereo not drawn) [Example 162, 2,3-Dihydro-benzo[1,4]dioxine-6-carboxylic acid [2-(6-oxa-1-aza-spiro[3.4]oct-1-yl)-benzooxazol-5-yl]-amide]",954
14,"O=C(Nc1ccc2oc(N3CCC34CCOCC4)nc2c1)c1ccc2c(c1)OCO2 [Example 126, Benzo[1,3]dioxole-5-carboxylic acid [2-(7-oxa-1-aza-spiro[3.5]non-1-yl)-benzooxazol-5-yl]-amide]",757
15,"COC1CCN(c2nc3cc(NC(=O)c4ccc5c(c4)OCO5)ccc3o2)CC1 [Example 131, Benzo[1,3]dioxole-5-carboxylic acid [2-(4-methoxy-piperidin-1-yl)-benzooxazol-5-yl]-amide]",1050
16,"O=C(Nc1ccc2oc(N3CCC34COC4)nc2c1)c1ccc2c(c1)CCCO2 [Example 143, Chroman-6-carboxylic acid [2-(6-oxa-1-aza-spiro[3.3]hept-1-yl)-benzooxazol-5-yl]-amide]",681

# Results, then the compound that gave them:
row,IC50 [nM],SMILES
1,756,"O=C(Nc1ccc2oc(N3CCOCC3)nc2c1)c1ccc2c(c1)CCCO2 [Example 155, Chroman-6-carboxylic acid (2-morpholin-4-yl-benzooxazol-5-yl)-amide]"
2,899,"O=C(Nc1ccc2oc(N3CCCC3)nc2c1)c1ccc2c(c1)CCO2 [Example 3, 2,3-Dihydro-benzofuran-5-carboxylic acid (2-pyrrolidin-1-yl-benzooxazol-5-yl)-amide]"
3,1230,"O=C(Nc1ccc2oc(N3CC4(CCOCC4)C3)nc2c1)c1ccc2c(c1)CCO2 [Example 30, 2,3-Dihydro-benzofuran-5-carboxylic acid [2-(7-oxa-2-aza-spiro[3.5]non-2-yl)-benzooxazol-5-yl]-amide]"
4,731,"COC1CCCN(c2nc3cc(NC(=O)c4ccc5c(c4)CCO5)ccc3o2)C1 (stereo not drawn) [Example 59, 2,3-Dihydro-benzofuran-5-carboxylic acid [2-(3-methoxy-piperidin-1-yl)-benzooxazol-5-yl]-amide]"
5,1890,"O=C(Nc1ccc2oc(N3CC(F)(F)C3)nc2c1)c1ccc2c(c1)CCO2 [Example 8, 2,3-Dihydro-benzofuran-5-carboxylic acid [2-(3,3-difluoro-azetidin-1-yl)-benzooxazol-5-yl]-amide]"
6,1080,"O=C(Nc1ccc2oc(N3CC4(CCOC4)C3)nc2c1)c1ccc2c(c1)CCO2 [Example 74, 2,3-Dihydro-benzofuran-5-carboxylic acid [2-(6-oxa-2-aza-spiro[3.4]oct-2-yl)-benzooxazol-5-yl]-amide]"
7,389,"O=C(Nc1ccc2oc(N3CCCC(F)(F)C3)nc2c1)c1ccc2c(c1)CCO2 [Example 16, 2,3-Dihydro-benzofuran-5-carboxylic acid [2-(3,3-difluoro-pipeiidin-1-yl)-benzooxazol-5-yl]-amide]"
8,729,"O=C(Nc1ccc2oc(N3CCC4(CCO4)CC3)nc2c1)c1ccc2c(c1)CCO2 [Example 27, 2,3-Dihydro-benzofuran-5-carboxylic acid [2-(1-oxa-7-aza-spiro[3.5]non-7-yl)-benzooxazol-5-yl]-amide]"
9,1230,"O=C(Nc1ccc2oc(N3CC(c4ccccc4)C3)nc2c1)c1ccc2c(c1)CCO2 [Example 49, 2,3-Dihydro-benzofuran-5-carboxylic acid [2-(3-phenyl-azetidin-1-yl)-benzooxazol-5-yl]-amide]"
10,2410,"O=C(Nc1ccc2oc(N3CC(N4CCC(O)CC4)C3)nc2c1)c1ccc2c(c1)CCO2 [Example 32, 2,3-Dihydro-benzofuran-5-carboxylic acid {2-[3-(4-hydroxy-piperidin-1-yl)-azetidin-1-yl]-benzooxazol-5-yl}-amide]"
11,358,"O=C(Nc1ccc2oc(N3CCC(F)(F)CC3)nc2c1)c1ccc2c(c1)CCO2 [Example 7, 2,3-Dihydro-benzofuran-5-carboxylic acid [2-(4,4-difluoro-piperidin-1-yl)-benzooxazol-5-yl]-amide]"
